Measurements as given in patent EP3563875A1, “RADIUM FOR RADIONUCLIDE THERAPY, IN COMBINATION WITH CALCIUM […] TREATMENT” (priority 2018, dated 2019).

Assays:
[1] = intravenously or subcutaneously; cited from earlier work
[2] = Biodistribution and elimination of 223Ra in mice after i.v. administration; type: in vivo, female outbred CD1 mice
Method: (§1) The study was performed in female outbred CD1 mice imported from Charles River breeds. Animals were housed in groups of five and acclimated over five days. After acclimatization, the animals were divided into four groups. The day before the experiment the feed was taken away and at the beginning of the experiment itself the animals were weighed and placed in cages individually on a nonwoven fabric. After administration of ^223Ra (ca 200 kBq/animal in 0.05 ml of physiological saline) through vena caudalis, excrements were collected after one and four hours; after 24 hours, five mice were sacrificed from each group, another five were sacrificed after 96 hours. Blood, heart, lung, liver, pancreas, spleen, kidney, urinary bladder, wall of the colon, colon content, stomach, stomach content, thyroid gland, brain, femur, ovaries, parts of skin and muscles, and excrements from each mouse were removed. The organs and excrements in the measuring vessels were weighed and measured in a well of NaI (T1) scintillation detector.
Ten mice were medicated with CaCl2 in the concentration of 1.11 g/L for one week prior to administration of ^223Ra. The solution was used to feed per os ad libitum throughout the experiment. Table 3. Biodistribution of 223Ra with CaCl2
15 mice were pre-medicated with vitamin D3, 160 IU/mouse (0.02 mL of triglyceride oil solution of vitamin D3; 0.2 mg/ml) administered per os with part of the feed, three times a week for one week prior to administration of ^223Ra. Five of these mice were eliminated during the experiment because they refused vitamin intake. Table 4. Biodistribution of 223Ra with vitamin D3
Ten mice were medicated with zoledronic acid; 0.1 mL preparation/mouse was taken from the 4 mg/100 mL infusion solution and administered subcutaneously twice a week for one week before administration of ^223Ra. Table 5. Biodistribution of 223Ra with zoledronic acid
Ten mice were used as a control group. Table 6. Biodistribution of 223Ra
(§2) Experimental layout was analogous to Example 1 or 2. In the mouse model, the animals were pre-medicated by oral administration of L-arginine for one week. L-arginine was added to the mouse food once a day. The day before administration of radium, Ca2^+ was administered orally in the form of a soluble salt. Subsequently, Ra-223 was administered intravenously as a solution of RaCl2 in physiological NaCl saline.
Experimental layout was analogous to Example 3. In the mouse model, the animals were pre-medicated by subcutaneous injection of calcitonin for one week so that its serum concentration is about 5 nM. Two days before administration of Ra-223, Ca^2+ was administered orally in the form of a soluble salt. Subsequently, Ra-223 was administered intravenously as a solution.

[3] = as above; type: in vivo, female outbred CD1 mice; conditions: one week pre-medication, oral soluble Ca2+ salt before Ra-223 i.v.; result in words
Method: as §1, with “detector. […]” for “detector.”
as §2, with “Subsequently, Ra-223 was administered intravenously as a solution of RaCl2 in physiological NaCl saline.” left out

[4] = cited from earlier work

O=P(O)(O)C(O)(Cn1ccnc1)P(=O)(O)O [zoledronic acid]
NOAEL [1]: 0.02 mg/kg/day

N=C(N)NCCC[C@H](N)C(=O)O [L-arginine]
Ra uptake in the organism ([2]; one week pre-medication, oral soluble Ca2+ salt before Ra-223 i.v., result in words): Ra uptake and resorption increased in the organism

calcitonin
Ra uptake in the organism [3]: Ra-223 uptake increased in the organism

[Cl][223Ra][Cl] [223Ra, radium-223 dichloride]
activity in the blood ([4]; 24 hours after injection): less than one percent | administered activity remains in the blood ([4]; after four hours): approximately four percent | volume of distribution ([4]; after intravenous injection): higher than the blood volume | activity remains in the blood ([4]; fifteen minutes after the injection): about 20% | activity administered excreted from the body ([4]; whole-body measurement seven days after injection, on average): 76% | uptake in other organs such as the heart, liver, kidney, urinary bladder, and spleen ([4]; within four hours after injection): No significant uptake | Kidney %ID/g after 24 h ([2]; 223Ra ca 200 kBq/animal i.v., kidney, 24 h): 1.76 %ID/g | Kidney %ID/g after 96 h ([2]; 223Ra ca 200 kBq/animal i.v., kidney, 96 h): 0.32 %ID/g | Large intestine content %ID/g after 24 h ([2]; 223Ra ca 200 kBq/animal i.v., large intestine content, 24 h): 2.14 %ID/g | Large intestine content %ID/g after 96 h ([2]; 223Ra ca 200 kBq/animal i.v., large intestine content, 96 h): 0.27 %ID/g | Left femur %ID/g after 24 h ([2]; 223Ra ca 200 kBq/animal i.v., left femur, 24 h): 13.37 %ID/g | Left femur %ID/g after 96 h ([2]; 223Ra ca 200 kBq/animal i.v., left femur, 96 h): 10.33 %ID/g | Liver %ID/g after 24 h ([2]; 223Ra ca 200 kBq/animal i.v., liver, 24 h): 0.17 %ID/g | Liver %ID/g after 96 h ([2]; 223Ra ca 200 kBq/animal i.v., liver, 96 h): 0.10 %ID/g | Spleen %ID/g after 24 h ([2]; 223Ra ca 200 kBq/animal i.v., spleen, 24 h): 8.59 %ID/g | Spleen %ID/g after 96 h ([2]; 223Ra ca 200 kBq/animal i.v., spleen, 96 h): 6.77 %ID/g | Thyroid %ID/g after 24 h ([2]; 223Ra ca 200 kBq/animal i.v., thyroid, 24 h): 0.39 %ID/g | Thyroid %ID/g after 96 h ([2]; 223Ra ca 200 kBq/animal i.v., thyroid, 96 h): 0.07 %ID/g | In total after 24 h eliminated in excrements ([2]; 223Ra in excrements, 24 h): 33.54 ± 16.22 % ID | In total after 96 h eliminated in excrements ([2]; 223Ra in excrements, 96 h): 36.43 ± 12.31 % ID | In total after 24 h eliminated in urine ([2]; 223Ra in urine, 24 h): 16.24 ± 2.29 % ID | In total after 96 h eliminated in urine ([2]; 223Ra in urine, 96 h): 17.73 ± 2.34 % ID
